Assay [1] concerns C2C12 muscle stem cells. The assay is described as follows: C2C12 muscle stem cell culture with immunocytochemistry (Pax7, MyoD, Ki67, MHC). In kind it is cell-based. The note with it: for number of stem cells in culture: FIG. 2, TIBA at low to mid-level concentrations (range tested 0.0001-0.1 μg/ml). How it is done: (§1) Reagents: The auxin 2,4-Dichlorophenoxyacetic acid, and auxin antagonist, TIBA (2,3,5-triiodobenzoic acid), are purchased from Sigma-Aldrich (St. Louis, Mo.), After dissolving, these compounds are stored at −20° C. Concentrations used are 0.0001, 0.001, 0.01 and 0.1 μg/ml.
C2C12 muscle stem cells are used. Cells from low-passage frozen stocks are seeded in a 10 cm culture dish. After reaching 60% confluence, cells are passaged into an 8-well chamber slide (BD Biosciences, CA, USA). C2C12 cells are seeded on an 8-well chamber slide (3.5×10^3 cells/well). On day 3 after exposure to biomodulator or control, cells are fixed for immunocytochemistry (ICC) of MyoD and Ki67. For MHC and Pax7 immunostaining, cell culture media is replaced from the growth media (GM) to the differentiation media (DM) to induce terminal differentiation at day 5, and then cells are fixed for ICC of MHC and Pax7 at day 8. Media change and compound administration are performed daily.
For ICC, cells are fixed with 4% paraformaldehyde (PFA)/PBS for 20 min at ambient temperature. After being washed with PBS, cells are soaked in 0.1% Triton-X/PBS for 15 min at RT and blocked with 5% normal goat serum (NGS)/PBS to inhibit non-specific binding of antibodies for 60 min at ambient temperature. Primary antibodies are applied, and cells are incubated overnight at 4° C. The primary antibodies are anti-Pax7 mouse monoclonal (Developmental Studies Hybridoma Bank (DSHB), IA), anti-MyoD mouse monoclonal (DSHB), anti-Myosin Heavy Chain mouse monoclonal (MF20; DSHB) and anti-Ki67 rabbit polyclonal (Thermo Fisher Scientific, CA) antibodies.

Assay [2] relates to cardiac cells (myoblasts). The note with it: cited from earlier work.
The subject of assay [3] is ten different cancer cell lines. The assay is described as follows: Cellular ATP level (ViaLight) assay, panel of cancer cell lines. To be noted: various concentrations. It is filed as cell-based. The source says: (§2) Selected cell lines include C33A cervical carcinoma cells, Mrc-5 normal lung fibroblasts, PC-3 human prostatic carcinoma cell line, OVCAR-3 human ovarian carcinoma cell line, H460 non-small cell lung cancer cell line, A549 human lung carcinoma cell line, H1299 human non-small cell lung cancer cells, MCF-7 human breast cancer cell line, SW-480 human adenocarcinoma cell line, B16-F1 mouse melanoma cell line (American Type Culture Collection, Manassas, Va., USA), HMEC normal mammary epithelial cells (Clonetics San Diego, Calif., USA) and ADR-RES human breast cancer cell line (NCI, MD, USA), which are cultured in the media recommended by the American Type Culture Collection. The cell lines are plated in 96-well microliter plates (PerkinElmer Life Sciences Inc., Boston, Mass., USA) at a confluency that allows them to reach confluence after 4 days of growth. One day after plating, the cells are treated with various concentrations of biomodulator. Stock solutions of the biomodulator are prepared in dimethyl sulfoxide (Sigma-Aldrich Inc., St. Louis, Mo., USA), diluted in the recommended media and then added to the cells. The total dimethyl sulfoxide on the cells is 1%. After 3 days of incubation the ATP levels in the cells are quantified using a luminescent ViaLight detection system (Bio-Whittaker, MD, USA). […]

Assay [4] concerns H1299 human non-small cell lung cancer cells. The assay is described as follows: Cellular ATP level (ViaLight) cell viability assay. The note with it: 0.5 μM, 72 hours after treatment. In kind it is cell-based.
Excerpt: as §2

The test system of assay [5] is C33A cervical carcinoma cells. The experiment in a line: Cellular ATP level (ViaLight) cell viability assay. To be noted: 0.5 μM, 72 hours after treatment. In kind it is cell-based.
Excerpt: as §2

For assay [6], the system named is murine colonic tumor, colon 26. The experiment in a line: Treatment of colon 26 tumors in mice. In kind it is in vivo, CDF1 mice. The note with it: 1 mg in 1 ml on days 7, 11 and 15, under the skin of the back and into tail vein; palpation. How it is done: Treatment of tumors in mice. A pharmaceutical composition of biomodulator 3-indolyl-acetic acid, or 6-furfurylaminopurine are prepared at 10 mg in 10 ml of physiological saline. 10 mg of a murine colonic tumor, colon 26, is inoculated under the skin of the back of CDF1 mice (day 0). After one week, the tumor is measured to calculate the volume of the tumor and the mice are classified into several groups (each group: n=5). On days 7, 11 and 15, the tumor-inoculated mice are bolusly injected under the skin of their backs and into their tail veins with 1 mg of the biomodulator in a volume of 1 ml. Control and comparative groups of mice are similarly injected with saline. Complete regression of the colonic tumor is determined by palpation. Subjects in which the tumor […] by palpation on the 60th day are deemed to have their tumors cured completely.

Assay [7] deals with white cells. To be noted: in vitro; cited from earlier work.
Assay [8] has as its system C2C12 muscle stem cells. The experiment in a line: WST-1 cell growth assay. It is filed as cell-based. To be noted: day 3; 0.001 μg/ml and 0.0001 μg/ml. Here is the method: as §1
Cell growth parameters are measured by WST assay. Cell proliferation reagent WST-1 is purchased from Roche (NJ). Assays are performed according to the manufacturer's protocol. Cells are seeded on a 96-well cell culture plate (1.5×10^3 cells/well), and absorbance (A450-A690) is measured at day 3.
(Tetrazolium assays rely on reduction of a dye to a coloured formazan, in cell work by metabolically active cells.)

Assay [9] has as its system fibroblasts in human skin. The note with it: cited from earlier work.
For assay [10], the system named is human myeloid leukaemia cells. The note with it: cited from earlier work.

For `O=C(O)COc1ccc(Cl)cc1Cl` [auxin, 2,4-Dichlorophenoxyacetic acid], the “number of stem cells in culture” value in assay [1] is reported as “opposite that of TIBA”. In assay [1] (FIG. 4, high Auxin concentrations), the global cell proliferation entry is “reduced”. Further, the myotube formation entry in assay [1] (FIG. 5, low auxin concentration) is “increase”; in [1] (FIG. 5, mid to high auxin concentration (0.01 μg/ml)), “reduced”.

For the compound `c1nc2nc(Nc3ccc(N4CCOCC4)cc3)nc(NC3CCCCC3)c2[nH]1` [reversine], the de-differentiation of cells entry in assay [2] was “de-differentiate into osteoblasts and adipocytes”.

On to `O=C(O)Cc1c[nH]c2ccccc12` [3-indolyl-acetic acid], for which the “decrease of cellular ATP levels compared with HMEC normal mammary epithelial cell line” value in [3] is “greater efficacy in decreasing cellular ATP levels”. The “lowering of ATP levels compared with normal cell lines HMEC and MRC-5” value in assay [4] and in [5] was “significantly more effective at lowering ATP levels” each time. For the same compound, the tumor regression result in [6] is listed as “produces tumor regression”.

With `CC1=CC(=O)CC(C)(C)[C@@]1(O)/C=C/C(C)=C\C(=O)O` [ABA, Abscisic acid], the “phagocytosis in white cells” value in [7] is recorded as “stimulation of phagocytosis”.

For `O=C(O)c1cc(I)cc(I)c1I` [TIBA, 2,3,5-triiodobenzoic acid], the “cell number, WST-1 cell growth assay” value in assay [8] is listed as “increases cell number”. In addition, the “number of stem cells in culture” value in [1] is “reduces the number of stem cells”. In addition, in assay [1] (FIG. 6, increased concentrations of TIBA), the myotube formation result is “increased myotube formation”. Moreover, in [1] (day 3), the “number of MyoD positive myoblasts” value is “dose-dependent decrease”.

In the case of `c1coc(CNc2ncnc3nc[nH]c23)c1` [6-furfurylaminopurine], the “life span of fibroblasts” value in assay [9] is recorded as “prolongs the life span of fibroblasts”. Besides, in [6], the tumor regression entry was “produces tumor regression”. The “granulocytic differentiation and apoptosis” value in assay [10] is reported as “induction of granulocytic differentiation”.

The values are drawn from patent US9063122B2, “Biomodulators for treatment or prevention of disease” (priority 2008, dated 2015).
